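All cell lines were grown in 96-well plates and treated with compound for 48 hours. Here, GI50 denotes the concentration required for 50% inhibition of growth.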 Activity calls are given as the source filed them. No stated cut-off is given here; in the data, active = GI50 up to about 1.1 µM and inactive = higher.
Columns and labels:
Experiment in all cases: DTP human tumour cell line panel, 48 h
SF-268 = tested on: SF-268
SK-OV-3 = tested on: SK-OV-3
NCI/ADR-RES = tested on: NCI/ADR-RES
786-0 = tested on: 786-0
Hs-578T = tested on: Hs-578T
M14 = tested on: M14
OVCAR-5 = tested on: OVCAR-5
COLO 205 = tested on: COLO 205
SNB-75 = tested on: SNB-75
SK-MEL-28 = tested on: SK-MEL-28
K562 = tested on: K562
DU-145 = tested on: DU-145
MDA-N = tested on: MDA-N
NCI-H23 = tested on: NCI-H23
BT-549 = tested on: BT-549
NCI-H226 = tested on: NCI-H226
OVCAR-4 = tested on: OVCAR-4
PC-3 = tested on: PC-3
TK-10 = tested on: TK-10

Measured: GI50

CNC(=O)CNC(=O)N(C[C@@H]1CCCN1C(=O)[C@H](CC(C)C)NC(=O)OC(C)(C)C)C(C)C
inactive: SF-268 > 100 µM | SK-OV-3 > 100 µM | NCI/ADR-RES > 100 µM | 786-0 > 100 µM | Hs-578T > 100 µM | M14 > 100 µM | OVCAR-5 > 100 µM | COLO 205 > 100 µM | SNB-75 > 100 µM | SK-MEL-28 > 100 µM | K562 > 100 µM | DU-145 > 100 µM | MDA-N > 100 µM | NCI-H23 > 100 µM | BT-549 > 100 µM | NCI-H226 > 100 µM | OVCAR-4 > 100 µM | PC-3 > 100 µM

COc1ccc(Nc2nc3ccccc3nc2C(=O)O)cc1OC
inactive: SF-268 41 µM | SK-OV-3 64.4 µM | NCI/ADR-RES 35.2 µM | 786-0 73.6 µM | Hs-578T > 100 µM | M14 > 100 µM | OVCAR-5 > 100 µM | TK-10 82.8 µM | COLO 205 > 100 µM | SNB-75 69.2 µM | SK-MEL-28 50.2 µM | K562 > 100 µM | DU-145 > 100 µM | MDA-N > 100 µM | NCI-H23 80.4 µM | BT-549 52.7 µM | NCI-H226 57 µM | PC-3 > 100 µM

CCCCCCCCCCCCN1[C@H]2CCC[C@H]2C(O)[C@@H]2CCC[C@@H]21 (stereo partly specified)
inactive: SF-268 > 100 µM | SK-OV-3 > 100 µM | NCI/ADR-RES > 100 µM | 786-0 > 100 µM | Hs-578T > 100 µM | M14 > 100 µM | OVCAR-5 > 100 µM | COLO 205 > 100 µM | SNB-75 > 100 µM | SK-MEL-28 > 100 µM | K562 > 100 µM | DU-145 > 100 µM | MDA-N > 100 µM | NCI-H23 42.6 µM | BT-549 42.3 µM | NCI-H226 96.6 µM | OVCAR-4 > 100 µM | PC-3 88.5 µM

c1cn(C23C4C5C6C4C2C6C53)cn1 (stereo unspecified)
inactive: SF-268 > 100 µM | SK-OV-3 > 100 µM | NCI/ADR-RES > 100 µM | 786-0 > 100 µM | Hs-578T > 100 µM | M14 > 100 µM | OVCAR-5 > 100 µM | TK-10 > 100 µM | COLO 205 > 100 µM | SNB-75 > 100 µM | SK-MEL-28 > 100 µM | K562 > 100 µM | DU-145 > 100 µM | MDA-N > 100 µM | NCI-H23 > 100 µM | BT-549 > 100 µM | NCI-H226 > 100 µM | PC-3 > 100 µM

O=C(NCc1ccc(Cl)c(Cl)c1)c1nc2ccccc2nc1NCc1ccc(Cl)c(Cl)c1
inactive: SF-268 > 100 µM | NCI/ADR-RES > 100 µM | 786-0 > 100 µM | Hs-578T > 100 µM | M14 > 100 µM | OVCAR-5 > 100 µM | TK-10 > 100 µM | COLO 205 > 100 µM | SNB-75 > 100 µM | SK-MEL-28 > 100 µM | K562 > 100 µM | DU-145 > 100 µM | MDA-N > 100 µM | NCI-H23 > 100 µM | BT-549 > 100 µM | NCI-H226 > 100 µM | PC-3 > 100 µM

CC(NC(=O)C(OC(=O)C(C)NC(=O)OC(C)(C)C)C(C)C)C(=O)OC(C(=O)O)C(C)C (stereo unspecified)
inactive: SF-268 > 100 µM | SK-OV-3 > 100 µM | NCI/ADR-RES > 100 µM | 786-0 > 100 µM | Hs-578T > 100 µM | M14 > 100 µM | OVCAR-5 > 100 µM | TK-10 > 100 µM | COLO 205 > 100 µM | SNB-75 > 100 µM | SK-MEL-28 > 100 µM | K562 > 100 µM | DU-145 > 100 µM | MDA-N > 100 µM | BT-549 > 100 µM | NCI-H226 > 100 µM | PC-3 > 100 µM

C=C(C)C(=O)O[C@H]1CC2=CC(CC(C)=C[C@H]3OC(=O)C(=C)C13)OC2=O (stereo partly specified)
inactive: SF-268 20.6 µM | NCI/ADR-RES 38.3 µM | 786-0 9.08 µM | Hs-578T 99.1 µM | M14 29.4 µM | OVCAR-5 33.7 µM | TK-10 8.02 µM | COLO 205 14.5 µM | SNB-75 > 100 µM | SK-MEL-28 14.1 µM | K562 7.74 µM | DU-145 15.5 µM | MDA-N 24.4 µM | NCI-H23 39.3 µM | BT-549 16.3 µM | NCI-H226 > 100 µM | OVCAR-4 34.8 µM | PC-3 23 µM

CNC(=S)NNc1ncnc2c1ncn2-c1ccc(C)cc1
inactive: SF-268 > 100 µM | SK-OV-3 > 100 µM | NCI/ADR-RES > 100 µM | 786-0 > 100 µM | Hs-578T > 100 µM | M14 > 100 µM | OVCAR-5 > 100 µM | TK-10 > 100 µM | COLO 205 > 100 µM | SK-MEL-28 > 100 µM | K562 > 100 µM | DU-145 > 100 µM | MDA-N > 100 µM | NCI-H23 > 100 µM | BT-549 > 100 µM | NCI-H226 > 100 µM | OVCAR-4 > 100 µM | PC-3 > 100 µM

CC1(C)CCC2=C(O1)/C(=N\Nc1ccccc1)c1ccccc1C2=O
inactive: SF-268 48.3 µM | SK-OV-3 24.9 µM | NCI/ADR-RES 31.1 µM | 786-0 15.8 µM | Hs-578T 35.6 µM | M14 31.5 µM | OVCAR-5 31.3 µM | TK-10 17.8 µM | COLO 205 31.8 µM | SK-MEL-28 59.6 µM | K562 39.9 µM | DU-145 29.8 µM | MDA-N 16.1 µM | NCI-H23 34.8 µM | BT-549 35.4 µM | NCI-H226 39.9 µM | OVCAR-4 31.2 µM | PC-3 24.1 µM

O=[N+]([O-])/C(C(Cl)=C(Cl)Cl)=C(\NCc1ccccc1)Sc1ccccc1
inactive: SF-268 24.3 µM | SK-OV-3 34 µM | NCI/ADR-RES 24.5 µM | 786-0 35.1 µM | Hs-578T 15.1 µM | M14 32.8 µM | OVCAR-5 47 µM | COLO 205 18.7 µM | SNB-75 28.2 µM | SK-MEL-28 17.3 µM | K562 63 µM | DU-145 36.6 µM | MDA-N 31.7 µM | NCI-H23 20.5 µM | BT-549 17.3 µM | NCI-H226 27.8 µM | OVCAR-4 28.6 µM | PC-3 27.5 µM

COC(=O)[C@]12C3=C(O)C(=O)C[C@H]1OC[C@H]2C=CC3
inactive: SF-268 > 100 µM | SK-OV-3 > 100 µM | NCI/ADR-RES > 100 µM | 786-0 > 100 µM | Hs-578T > 100 µM | M14 > 100 µM | OVCAR-5 > 100 µM | TK-10 > 100 µM | COLO 205 > 100 µM | SNB-75 > 100 µM | SK-MEL-28 > 100 µM | K562 64 µM | DU-145 > 100 µM | MDA-N > 100 µM | NCI-H23 > 100 µM | BT-549 > 100 µM | OVCAR-4 > 100 µM | PC-3 > 100 µM
